According to PMC8067754, “Active Transport of Hepatotoxic Pyrrolizidine Alkaloids in HepaRG Cells” (International Journal of Molecular Sciences, 2021):

Molecular target: T1, SLC22A1 (Homo sapiens, UniProt O15245)
T1 construct: For measuring the uptake of ASP^+ in HepaRG cells incubated with PAs; endogenous in cells; host or cells: differentiated HepaRG cells (human hepatoma)
T1 sequence (O15245 1-554): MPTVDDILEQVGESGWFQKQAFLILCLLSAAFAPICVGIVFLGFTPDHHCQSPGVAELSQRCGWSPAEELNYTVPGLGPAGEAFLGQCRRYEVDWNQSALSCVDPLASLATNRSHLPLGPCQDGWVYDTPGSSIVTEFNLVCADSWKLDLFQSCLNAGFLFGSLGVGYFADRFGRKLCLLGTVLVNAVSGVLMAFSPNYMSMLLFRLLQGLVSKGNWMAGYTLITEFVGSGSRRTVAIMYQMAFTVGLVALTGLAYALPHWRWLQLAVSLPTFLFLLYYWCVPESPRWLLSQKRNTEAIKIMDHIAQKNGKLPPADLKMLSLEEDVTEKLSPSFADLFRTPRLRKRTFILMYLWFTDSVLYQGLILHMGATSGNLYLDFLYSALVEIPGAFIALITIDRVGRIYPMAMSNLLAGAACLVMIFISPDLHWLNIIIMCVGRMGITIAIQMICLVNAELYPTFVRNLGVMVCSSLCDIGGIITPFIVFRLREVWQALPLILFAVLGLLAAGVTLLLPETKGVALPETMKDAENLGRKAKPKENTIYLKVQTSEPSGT
Experiment: ASP+ (SLC22A1 substrate) uptake measurement in HepaRG cells
Type: cell-based
Protocol: ASP^+ is an organic cationic mitochondrial dye that only fluoresces inside cells so that fluorescence measured in the cell culture medium can be neglected. […] In parallel, cells were incubated with Qu (100 µM) and TEA (3 mM) as mentioned in Section 4.3. After 24 h, cells were incubated with 1 µM ASP^+ in Hanks’ balanced salt solution (HBSS, Sigma-Aldrich, Taufkirchen, Germany) at 37 °C. Fluorescence was measured after 20 min at ASP^+-specific wavelength (λex = 475 nm and λem = 605 nm) on a TecanM200Pro spectrometer (Tecan Group Ltd., Männedorf, Switzerland) according to Ahlin et al., (2008).

C/C=C1/C[C@@H](C)[C@@](C)(O)C(=O)OCC2=CCN3CC[C@@H](OC1=O)[C@@H]23 [Senecionine, senecionine]
fluorescence [%], MW [%] (1 µM, solv ctrl = 100): 90.9095% | fluorescence [%], MW [%] (10 µM, solv ctrl = 100): 39.1097% | fluorescence [%], MW [%] (50 µM, solv ctrl = 100): 27.2215% | fluorescence [%], MW [%] (100 µM, solv ctrl = 100): 21.3927% | fluorescence [%], MW [%] (250 µM, solv ctrl = 100): 20.0876% | interaction with SLC22A1 (HepaRG): both inhibitors and substrates | minimum concentration inhibiting uptake of the SLC22A1-specific substrate ASP+ (HepaRG, 24 h): 10 µM | remaining activity at 1 µM (HepaRG, 24 h, 1 µM, solv ctrl = 100, read-out: fluorescence [%], single replicates (repl.)): 82%
